Consider 3 compounds from patent US20240285660A1, “COMPOSITION FOR WOUND RELIEF AND INHIBITING A PHD PROTEIN AND METHODS OF TREATMENT” (Curapep LLC, priority 2021, published 2024).

The subject of the experiment is HIF1-a protein in L929 cells. Briefly: In vitro HIF stabilization (HIF1-a ELISA, normalized to DNA content). The experiment is classed as cell-based. The note with it: for level of HIF-1a compared to the negative control cells: alone, 0.01, 0.1, 1, 10 and 100 micromolar, L929 cells. In general terms: In an ELISA, binding on a coated surface is turned into a signal by an enzyme label.

SMILES strings stand for the structures. Where “and” joins values, the source holds several entries; their conditions need not be identical. Equal entries are not always repeated.

On to `[Cl-].[Cl-].[Co+2]` [CoCl2], for which the “HIF content increase (normalized to the DNA content) compared to the negative control” value was 2.21 fold and 2.16 fold. Consider `O=c1cc(-c2ccccc2)oc2ccccc12` [Flavone, 2-phenylchromen-4-one], for which the “level of HIF-1a compared to the negative control cells” value is “either a decrease of HIF-1a or the same level of HIF-1a”. Regarding `O=c1c(-c2ccc(O)cc2)coc2c([C@@H]3O[C@H](CO)[C@@H](O)[C@H](O)[C@H]3O)c(O)ccc12` [Puerarin, 7-hydroxy-3-(4-hydroxyphenyl)-8-[(2S,3R,4R,5S,6R)-3,4,5-trihydroxy-6-(hydroxymethyl)oxan-2-yl]chromen-4-one], the “level of HIF-1a compared to the negative control cells” value was “either a decrease of HIF-1a or the same level of HIF-1a”.
